Assay results published in ChEMBL document CHEMBL3351409, “Repurposing cryptosporidium inosine 5'-monophosphate dehydrogenase inhibitors as potential antibacterial agents” (ACS Med Chem Lett, 2014).
Values after ≈ are worked out from the molar mass of the structure shown. Active and inactive are the calls of the source. No cut-off for these calls is given here.

Legend:
[1] = biological target: T1, Inosine-5'-monophosphate dehydrogenase (Bacillus anthracis, UniProt A0A6L8P2U9); assay: Non-competitive inhibition of Bacillus anthracis IMPDH preincubated for 10 mins before IMP substrate addition by spectrophotometry
T1 sequence (A0A6L8P2U9 whole entry): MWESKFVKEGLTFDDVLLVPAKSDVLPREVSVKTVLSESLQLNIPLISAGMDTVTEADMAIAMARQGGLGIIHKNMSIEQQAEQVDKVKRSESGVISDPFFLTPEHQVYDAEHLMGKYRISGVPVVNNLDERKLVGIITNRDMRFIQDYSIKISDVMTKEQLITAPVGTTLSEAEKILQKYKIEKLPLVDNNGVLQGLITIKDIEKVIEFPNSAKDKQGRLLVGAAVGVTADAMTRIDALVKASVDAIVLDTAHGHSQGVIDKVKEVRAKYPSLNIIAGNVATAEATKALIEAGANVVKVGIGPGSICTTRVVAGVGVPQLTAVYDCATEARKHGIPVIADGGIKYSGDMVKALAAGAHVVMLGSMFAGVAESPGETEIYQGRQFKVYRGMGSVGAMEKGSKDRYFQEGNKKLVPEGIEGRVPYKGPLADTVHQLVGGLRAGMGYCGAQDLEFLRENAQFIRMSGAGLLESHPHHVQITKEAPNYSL

[2] = biological target: T2, Inosine-5'-monophosphate dehydrogenase (Cryptosporidium parvum, UniProt Q8T6T2); assay: Un-competitive inhibition of Cryptosporidium IMPDH preincubated for 10 mins before IMP substrate addition by spectrophotometry
T2 sequence (Q8T6T2 whole entry): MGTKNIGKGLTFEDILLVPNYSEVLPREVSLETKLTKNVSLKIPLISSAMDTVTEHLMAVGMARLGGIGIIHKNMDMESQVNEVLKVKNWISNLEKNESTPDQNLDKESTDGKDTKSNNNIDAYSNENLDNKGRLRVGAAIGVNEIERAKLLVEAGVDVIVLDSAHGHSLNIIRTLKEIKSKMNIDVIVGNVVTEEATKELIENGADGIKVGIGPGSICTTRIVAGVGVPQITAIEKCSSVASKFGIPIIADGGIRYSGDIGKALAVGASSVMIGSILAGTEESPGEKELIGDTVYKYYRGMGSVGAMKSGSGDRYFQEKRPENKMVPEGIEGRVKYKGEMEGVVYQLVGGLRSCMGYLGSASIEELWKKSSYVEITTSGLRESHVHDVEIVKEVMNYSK

[3] = biological target: T1, Inosine-5'-monophosphate dehydrogenase; assay: Non-competitive inhibition of Bacillus anthracis IMPDH preincubated for 10 mins before NAD+ substrate addition by spectrophotometry
[4] = biological target: T2, Inosine-5'-monophosphate dehydrogenase; assay: Non-competitive inhibition of Cryptosporidium IMPDH preincubated for 10 mins before NAD+ substrate addition by spectrophotometry
[5] = Selectivity ratio of IC50 for Bacillus anthracis IMPDH to IC50 for Cryptosporidium IMPDH
[6] = biological target: T2, Inosine-5'-monophosphate dehydrogenase; assay: Inhibition of Cryptosporidium IMPDH preincubated for 10 mins before substrate addition by spectrophotometry
[7] = biological target: T1, Inosine-5'-monophosphate dehydrogenase; assay: Inhibition of Bacillus anthracis IMPDH preincubated for 10 mins before substrate addition by spectrophotometry
[8] = Antibacterial activity against Bacillus anthracis Sterne 7702 in presence of 0.01 % guanine; assay type: functional, Bacillus anthracis str. Sterne
[9] = tested on: Bacillus anthracis str. Sterne; assay: Ratio of MIC for Bacillus anthracis Sterne 7702 in presence of 0.01 % guanine to MIC for Bacillus anthracis Sterne 7702; assay type: functional
Staphylococcus aureus [10] = assay: Antibacterial activity against Staphylococcus aureus ATCC 13709 Smith in presence of 0.01 % guanine; assay type: functional
Staphylococcus aureus [11] = assay: Antibacterial activity against Staphylococcus aureus NCTC 8325 in presence of 0.01 % guanine; assay type: functional
Listeria monocytogenes [12] = assay: Antibacterial activity against Listeria monocytogenes 10403S; assay type: functional
Staphylococcus aureus [13] = assay: Antibacterial activity against Staphylococcus aureus NCTC 8325; assay type: functional
[14] = Antibacterial activity against Bacillus anthracis Sterne 7702; assay type: functional, Bacillus anthracis str. Sterne
Staphylococcus aureus [15] = assay: Ratio of MIC for Staphylococcus aureus ATCC 13709 Smith in presence of 0.01 % guanine to MIC for Staphylococcus aureus ATCC 13709 Smith; assay type: functional
Staphylococcus aureus [16] = assay: Ratio of MIC for Staphylococcus aureus NCTC 8325 in presence of 0.01 % guanine to MIC for Staphylococcus aureus NCTC 8325; assay type: functional
Staphylococcus aureus [17] = assay: Antibacterial activity against Staphylococcus aureus ATCC 13709 Smith; assay type: functional
Listeria monocytogenes [18] = assay: Ratio of MIC for Listeria monocytogenes 10403S in presence of 0.01 % guanine to MIC for Listeria monocytogenes 10403S; assay type: functional
Listeria monocytogenes [19] = assay: Antibacterial activity against Listeria monocytogenes 10403S in presence of 0.01 % guanine; assay type: functional
[20] = biological target: T2, Inosine-5'-monophosphate dehydrogenase; assay: Competitive inhibition of Cryptosporidium IMPDH preincubated for 10 mins before NAD+ substrate addition by spectrophotometry

Compound: Cn1nc(CC(=O)Nc2ccc3oc4c(c3c2)CCCC4)c2ccccc2c1=O
- Ki [1]: 0.012 µM
- Ki [2]: 0.005 µM
- Ki [3]: 0.5 µM
- Ki [4]: 0.049 µM

Compound: C[C@H](C(=O)Nc1ccc2oc(-c3ccncc3)nc2c1)c1ccccc1
- Ratio IC50 [5]: < 0.5

Compound: CC(Oc1ccc(-c2ccccc2)cc1)C(=O)Nc1ccc(Cl)cc1 (centres undefined)
- Ratio IC50 [5]: < 0.5
- IC50 [6]: 1.1 µM

Compound: C/C(=N\O)c1cccc(C(C)(C)NC(=O)Nc2ccc(Cl)c(C(=O)N3CCN(C)CC3)c2)c1
- Ratio IC50 [5]: < 0.5
- IC50 [6]: 0.33 µM

Compound: C/C(=N\O)c1cccc(C(C)(C)NC(=O)Nc2ccc(Cl)c(Cl)c2)c1
- Ratio IC50 [5]: < 0.5
- IC50 [7]: 0.095 µM
- IC50 [6]: 0.19 µM

Compound: CCN(CC)C(=O)c1ccc(NC(=O)NC(C)(C)c2cccc(/C(C)=N/O)c2)cc1Cl
- MIC [8]: > 30 µM
- Ratio [9]: 8
- MIC (Staphylococcus aureus [10]): > 30 µM
- MIC (Staphylococcus aureus [11]): > 30 µM
- MIC (Listeria monocytogenes [12]): 15 µM (≈ 6.67 µg/mL)
- MIC (Staphylococcus aureus [13]): 0.9 µM (≈ 0.4 µg/mL)
- MIC [14]: 0.5 µM (≈ 0.222 µg/mL)
- Ratio (Staphylococcus aureus [15]): 8
- Ratio (Staphylococcus aureus [16]): 8
- MIC (Staphylococcus aureus [17]): 4 µM (≈ 1.78 µg/mL)
- Ratio (Listeria monocytogenes [18]): 8

Compound: CC(C)C(Oc1cccc2ccccc12)C(=O)Nc1ccc(Cl)cc1 (centres undefined)
- Ratio IC50 [5]: < 0.5
- IC50 [7]: 0.12 µM
- IC50 [6]: 0.7 µM

Compound: C[C@H](Nc1cccc(Cl)c1Cl)C(=O)Nc1ccc2oc(-c3ccncc3)nc2c1
- Ratio IC50 [5]: < 0.5
- IC50 [7]: 0.005 µM

Compound: CC(Oc1cccc([N+](=O)[O-])c1Cl)C(=O)Nc1ccc2oc(-c3ccncc3)nc2c1 (centres undefined)
- Ratio IC50 [5]: < 0.5
- IC50 [7]: 0.014 µM
- IC50 [6]: 0.049 µM

Compound: O=C(COc1cccc2ccccc12)Nc1ccc(Br)cc1
- Ratio IC50 [5]: < 0.5
- IC50 [7]: 0.76 µM
- IC50 [6]: > 5 µM

Compound: O=C(Nc1ccc(Cl)cc1)C(Oc1cccc2ccccc12)c1ccccc1 (centres undefined)
- Ratio IC50 [5]: < 0.5
- IC50 [7]: 2.4 µM
- IC50 [6]: > 5 µM

Compound: C[C@@H](Oc1cc[n+]([O-])c2ccccc12)c1cn(-c2ccc(Cl)cc2)nn1
- MIC [8]: 8 µM
- MIC (Listeria monocytogenes [19]): inactive
- Ki [1]: 0.038 µM
- Ki [20]: 0.005 µM
- Ki [2]: 0.005 µM
- Ratio [9]: 8
- MIC (Staphylococcus aureus [10]): 16 µM
- MIC (Staphylococcus aureus [11]): > 30 µM
- Ki [3]: 0.058 µM
- MIC (Listeria monocytogenes [12]): 7.5 µM (≈ 2.75 µg/mL)
- MIC (Staphylococcus aureus [13]): 1.8 µM (≈ 0.66 µg/mL)
- MIC [14]: 1 µM (≈ 0.367 µg/mL)
- Ratio (Staphylococcus aureus [15]): 8
- Ratio (Staphylococcus aureus [16]): 8
- MIC (Staphylococcus aureus [17]): 2 µM (≈ 0.734 µg/mL)
- Ratio (Listeria monocytogenes [18]): 8

Compound: O=C(Cn1c(-c2ccccn2)nc2ccccc21)Nc1ccc2ccccc2c1
- Ki [1]: 0.82 µM
- Ki [2]: 0.013 µM
- Ki [3]: 0.044 µM
- Ki [4]: 0.014 µM

Compound: C/C(=N\O)c1cccc(C(C)(C)NC(=O)Nc2ccc(Cl)c(C(N)=O)c2)c1
- Ki [1]: 0.0015 µM
- Ki [2]: 0.002 µM
- Ki [3]: 0.008 µM
- Ki [4]: 0.006 µM

Compound: C[C@@H](Oc1cccc2cnccc12)c1cn(-c2ccc(Cl)cc2)nn1
- MIC [8]: > 30 µM
- Ratio [9]: 8
- MIC (Staphylococcus aureus [10]): > 30 µM
- MIC (Staphylococcus aureus [11]): > 30 µM
- MIC (Listeria monocytogenes [12]): 3.8 µM (≈ 1.33 µg/mL)
- MIC (Staphylococcus aureus [13]): 7.5 µM (≈ 2.63 µg/mL)
- MIC [14]: 2 µM (≈ 0.702 µg/mL)
- Ratio (Staphylococcus aureus [15]): 8
- Ratio (Staphylococcus aureus [16]): 8
- MIC (Staphylococcus aureus [17]): 8 µM (≈ 2.81 µg/mL)
- Ratio (Listeria monocytogenes [18]): 8

Compound: O=C(Nc1ccc(Cl)cc1)C(Oc1cccc2ccccc12)C1CC1 (centres undefined)
- Ratio IC50 [5]: < 0.5
- IC50 [6]: > 5 µM

Compound: C[C@H](Oc1cccc(Cl)c1Cl)C(=O)Nc1ccc2nc(-c3ccncc3)oc2c1
- Ratio IC50 [5]: < 0.5
- IC50 [7]: 0.01 µM

Compound: C=C(C)c1cccc(C(C)(C)NC(=O)Nc2ccc(Cl)c(C(F)(F)F)c2)c1
- Ratio IC50 [5]: < 0.5

Compound: C/C(=N\O)c1cccc(C(C)(C)NC(=O)Nc2ccc(Cl)c(C(=O)N3CCOCC3)c2)c1
- MIC (Staphylococcus aureus [10]): > 30 µM
- MIC (Staphylococcus aureus [11]): 7.5 µM
- MIC (Listeria monocytogenes [12]): > 30 µM
- MIC (Staphylococcus aureus [13]): 3.8 µM (≈ 1.74 µg/mL)
- Ratio (Staphylococcus aureus [15]): 8
- Ratio (Staphylococcus aureus [16]): 8
- MIC (Staphylococcus aureus [17]): 2 µM (≈ 0.918 µg/mL)
- Ratio (Listeria monocytogenes [18]): 8

Compound: C[C@H](Oc1cccc(Cl)c1Cl)C(=O)Nc1ccc2oc(-c3ccncc3)nc2c1
- Ratio IC50 [5]: < 0.5
- IC50 [7]: 0.01 µM

Compound: C[C@H](Oc1cccc2ccccc12)C(=O)Nc1ccc2oc(-c3ccncc3)nc2c1
- Ki [1]: 0.024 µM
- Ki [20]: 0.013 µM
- Ki [2]: 0.064 µM
- Ki [3]: 0.017 µM

Compound: C/C(=N\O)c1cccc(C(C)(C)NC(=O)Nc2ccc(Br)cc2)c1
- Ki [1]: 0.048 µM
- Ki [2]: 0.012 µM
- Ki [3]: 0.0023 µM
- Ki [4]: 0.015 µM
- Ratio IC50 [5]: < 0.5
- IC50 [6]: 0.009 µM

Compound: CC(=O)c1cccc(CNC(=O)Nc2ccc(Cl)cc2)c1
- Ratio IC50 [5]: < 0.5
- IC50 [7]: 1.2 µM
- IC50 [6]: > 5 µM

Compound: C/C(=N\O)c1cccc(C(C)(C)NC(=O)Nc2ccc(Cl)c(C(F)(F)F)c2)c1
- Ratio IC50 [5]: < 0.5
- IC50 [7]: 0.002 µM

Compound: C[C@H](Oc1cccc(Cl)c1Cl)C(=O)Nc1cccc(NC(=O)c2ccncc2)c1
- Ratio IC50 [5]: < 0.5
- IC50 [7]: 0.3 µM
